Entries after “also recorded” stand apart in the source; their conditions may differ.
Assays:
[1] = tested on: diabetic rats; conditions: streptozocin diabetic rats, sciatic nerve; amount administered not specified; cited from earlier work
[2] = tested on: mice and rats; conditions: mice and rats, cited from earlier work
[3] = tested on: diabetic rats; conditions: diabetic rat, 30 days after sciatic nerve cutting; diet: 200 mg/kg acetyl L-carnitine, 200 mg/kg carnitine mixture, 50 mg/kg α-lipoic acid daily; cited from earlier work
[4] = tested on: Wobbler mice; conditions: twenty days oral, acetyl L-carnitine 200 mg/kg, carnitine mixture 200 mg/kg, α-lipoic acid 50 mg/kg; cited from earlier work
[5] = tested on: streptozotocin-induced diabetic rats; conditions: 20 mg/kg/day for two weeks, six weeks after diabetes induction; vs untreated diabetic rats; cited from earlier work
[6] = tested on: rats; conditions: 10 mg/kg cisplatin s.c. seven days, oral 300 mg/kg acetyl L-carnitine, 300 mg/kg carnitine mixture, 50 mg/kg α-lipoic acid; cited from earlier work
[7] = tested on: diabetic polyneuropathy patients; conditions: cited from earlier work
[8] = tested on: C. elegans; test: Thermal avoidance (TAV) 11 step dose response testing; type: in vivo; conditions: highest concentration of LC, laser intensities 0% to 100% in 10% intervals, quadruplicate
Experimental: One 24 well microtiter plate was set up and incubated overnight on the shaker at 20° C. Each well on the plate was set up with 600 L3/L4-stage N2 animals in NGM with a 1:20 dilution of concentrated HB101 E. coli (food source) in a volume of 300 μl. Before the animal/HB101 solution was added, test compounds were pipetted into wells. For DMSO controls and compound stocks/dilutions in DMSO (LC) 3 μl was added to each well (1:100 dilutions). No OD620 measurements were taken but the animals were visually scored after 22 h incubation).
Dose Responses—setup & general notes on analysis: Same as for previous dose response experiments except that the data collection settings were modified. Per plate settings for the dose response experiments were as follows: […]

[9] = tested on: C. elegans; test: Toxicity testing in C. elegans, 96 well plate, bacterial clearance (OD620); type: in vivo; conditions: highest concentration tested, 2 mM; L1-stage N2 animals, OD620 up to 44 hours; listed as LC
Experimental: The work plan included a i) characterization of the compounds for toxicity in C. elegans and then, using subtoxic concentrations, a ii) characterization of compound effects on neuronal sensitivity as detected by TAV technology. Toxicity characterization follows a well established standard operating protocol used in previous toxicity-type assays in C. elegans. The initial TAV characterization of compound-mediated effects on C. elegans used a number of compound concentrations and incubation times that were selected by NemaRx as being most likely to detect any TAV-related effects that the compounds may have. […] 0% provides a ‘background’ measure, 6% typically gives intermediate TAV responses (and as such should provide a good starting point to detect compound-mediated increased TAV responses), and 12% usually gives robust responses. No obvious effects were detected for either of the four compounds. While the experimental setup provides a good first pass, the limitation lies in the relatively small number of animals that are assayed at each intensity (30). Subtle effects compound-mediated up-regulation at 6% laser intensity may be missed. • Single Intensity Testing: The two highest non-toxic compound concentrations for each of the four compounds were tested at 6% laser intensity. The number of datapoints collected was between 50-80 LA and >100 for the three other compounds. […] The experiment was carried out in quadruplicate. […] Stock Dilution Setup
Two 96 well microtiter plates set up which were incubated at 20 C (both 96 well plates were identical, i.e. the experiment was done in duplicate). Each well on the plates was set up with 100 L1-stage N2 animals in NGM with a 1:20 dilution of concentrated HB101 E. coli (food source) in a volume of 50 μl. Compounds (see below) were then added to the wells. For water controls and compound stocks/dilutions in water (DH LA, NAC) 1 μl was added to each well (1:50 dilutions). For DMSO controls and compound stocks/dilutions in DMSO (LA) 0.5 μl was added to each well (1:100 dilutions). […]

[10] = Hydrolysis study of LC Conjugate (pH/time study, followed by TLC); type: physicochemical
Experimental: Control: Free lipoic acid 1% solution in methanol/water
Substrate: LC Conjugate, 3% solution in methanol
A study on the stability and cleavability of LC Conjugate was performed in water at pH ranged from 5.5 to 8.0 at RT (20° C.).
The pH was adjusted using NaOH and HCl solutions.
Since substrate and cleaved products are non-UV sensitive, TLC was used to follow the progress of hydrolysis.

Molecule	NMCV [1] [m/sec]	tolerability and toxicity ([2]; individually or in combination at high doses)	dose that can be parenterally administered ([2]; parenteral) [mg/kg]	Density of tibial nerve degenerate elements [3] [per 100 nm^2]	Number of tibial nerve degenerate elements [3]	% increase in running time [4] [%]	sciatic endoneutral blood flow [5]	sciatic motor nerve NCV [5]	Equilibrium time [6] [s]	neuropathic symptoms and defects ([7]; 600 mg i.v. per day for 3 weeks)	neuropathic defects and cardiac autonomic neuropathy ([7]; subsequent oral treatment for 4-7 months)	sensitivity / response rate in 11 step dose response ([8]; listed as LC)	sensitivity / response rate in 11 step dose response ([8]; listed as Lipoic Acid+N-Acetyl Carnitine conjugate)	toxicity [9]	cleavability ([10]; under experimental conditions)	Rate of hydrolysis (cleavage) ([10]; water, pH 5.5 to 8.0, RT)	hydrolysis ([10]; water, pH 6.0, RT (20° C.), TLC, visual observation)	rate of hydrolysis ([10]; water, pH 7.0 and above, RT (20° C.), TLC, visual observation)	time within which almost complete hydrolysis was noted ([10]; water, pH 8.0, RT (20° C.), TLC, visual observation) [min]	stability ([10]; water, under pH 5.0, RT (20° C.), TLC, visual observation)
O=C(O)CCCCC1CCSS1 (centres unmarked) [LA, Lipoic acid]	39.9 ± 2.1	good tolerability and limited toxicity	≤ 100	0.20 ± 0.04	590 ± 0.70	40 ± 3.9	improved	improved	9.9 ± 0.8	appears to reduce pain, paraethesia and numbness, and to improve neuropathic defects	reduces neuropathic defects an improves cardiac autonomic neuropathy	–	–	–	–	–	–	–	–	–
Acetyl-L-Carnitine-Lipoic acid conjugate [LC Conjugate]	–	–	–	–	–	–	–	–	–	–	–	increases sensitivity not at lower stimulus intensities, but instead at higher intensities	Possible higher response rate at higher stimulus intensities	No toxic effects; also recorded: no toxicity observed	completely cleavable	pH dependent	Mild hydrolysis	quite noticeable	≤ 90	stable

Reference: patent publication US8318954B2, “Cleavable carnitine compound” (Nou Life Sciences, Inc., priority 2006, dated 2012)
